Assay results from PubChem BioAssay AID2060485 (Molecular Pharmacology Branch, DTP, NCI, 2025).

Test system: A375 multi-cell spheroids with HUVEC/MSC, viability
Experiment: Anticancer human tumor A375 cell line growth inhibition [GQUAD];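 note: spheroids exposed to compounds for seven days before readout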
Conditions: for IC50: curve of first compound; for viability, T/C: stronger effect = lower value
Summary of the method: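 Tumor cells were grown as complex spheroids with HUVEC endothelial cells and mesenchymal stem cells as stroma. G-quadruplex stabilizers were combined with targeted agents over half-log dilutions from near the clinical Cmax, or from 10 microM.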

[1] = second compound 0.0316 µM, first compound 0.0316 µM
[2] = second compound 0.0316 µM, first compound 0.1 µM
[3] = second compound 0.0316 µM, first compound 0.316 µM
[4] = second compound 0.0316 µM, first compound 1 µM
[5] = second compound 0.0316 µM, first compound 3.16 µM
[6] = second compound 0.0316 µM, first compound 10 µM
[7] = second compound 0.1 µM, first compound 0.0316 µM
[8] = second compound 0.1 µM, first compound 0.1 µM
[9] = second compound 0.1 µM, first compound 0.316 µM
[10] = second compound 0.1 µM, first compound 1 µM
[11] = second compound 0.1 µM, first compound 3.16 µM
[12] = second compound 0.1 µM, first compound 10 µM
[13] = second compound 0.316 µM, first compound 0.0316 µM
[14] = second compound 0.316 µM, first compound 0.1 µM
[15] = second compound 0.316 µM, first compound 0.316 µM
[16] = second compound 0.316 µM, first compound 1 µM
[17] = second compound 0.316 µM, first compound 3.16 µM
[18] = second compound 0.316 µM, first compound 10 µM
[19] = second compound 1 µM, first compound 0.0316 µM
[20] = second compound 1 µM, first compound 0.1 µM
[21] = second compound 1 µM, first compound 0.316 µM
[22] = second compound 1 µM, first compound 1 µM
[23] = second compound 1 µM, first compound 3.16 µM
[24] = second compound 1 µM, first compound 10 µM
[25] = second compound 3.16 µM, first compound 0.0316 µM
[26] = second compound 3.16 µM, first compound 0.1 µM
[27] = second compound 3.16 µM, first compound 0.316 µM
[28] = second compound 3.16 µM, first compound 1 µM
[29] = second compound 3.16 µM, first compound 3.16 µM
[30] = second compound 3.16 µM, first compound 10 µM
[31] = second compound 10 µM, first compound 0.0316 µM
[32] = second compound 10 µM, first compound 0.1 µM
[33] = second compound 10 µM, first compound 0.316 µM
[34] = second compound 10 µM, first compound 1 µM
[35] = second compound 10 µM, first compound 3.16 µM
[36] = second compound 10 µM, first compound 10 µM

Question: What does the source list for C=CCn1c(=O)c2cnc(Nc3ccc(N4CCN(C)CC4)cc3)nc2n1-c1cccc(C(C)(C)O)n1 + Cc1[nH]c2ccc(F)cc2c1-c1nc2c3cccnc3c3ncccc3c2[nH]1?
Answer: IC50 (second compound 0.0316 µM): 1040 nM; IC50 (second compound 0.1 µM): 1100 nM; IC50 (second compound 0.316 µM): 968 nM; IC50 (second compound 1 µM): 703 nM; IC50 (second compound 3.16 µM): 72.2 nM; IC50 (second compound 10 µM): 149 nM; viability, T/C [1]: 108%; viability, T/C [2]: 94.2%; viability, T/C [3]: 93.6%; viability, T/C [4]: 51.6%; viability, T/C [5]: 11.5%; viability, T/C [6]: 4.8%; viability, T/C [7]: 106%; viability, T/C [8]: 94.2%; viability, T/C [9]: 94.2%; viability, T/C [10]: 52.7%; viability, T/C [11]: 15.4%; viability, T/C [12]: 6.47%; viability, T/C [13]: 104%; viability, T/C [14]: 103%; viability, T/C [15]: 93.3%; viability, T/C [16]: 48.8%; viability, T/C [17]: 12.4%; viability, T/C [18]: 6.56%; viability, T/C [19]: 101%; viability, T/C [20]: 104%; viability, T/C [21]: 80%; viability, T/C [22]: 36.8%; viability, T/C [23]: 12.3%; viability, T/C [24]: 8.03%; viability, T/C [25]: 59.1%; viability, T/C [26]: 45.1%; viability, T/C [27]: 33.3%; viability, T/C [28]: 19.5%; viability, T/C [29]: 7.29%; viability, T/C [30]: 5.68%; viability, T/C [31]: 77.5%; viability, T/C [32]: 63.9%; viability, T/C [33]: 23.9%; viability, T/C [34]: 20.2%; viability, T/C [35]: 8.19%; viability, T/C [36]: 5.93%

Question: Which IC50 (second compound 0.0316 µM) does the source give for CC(C)(O)C1CCC(Nc2ccc3ncc(-c4cccc(C(F)(F)F)c4)n3n2)CC1 (stereo unspecified) + Cc1[nH]c2ccc(F)cc2c1-c1nc2c3cccnc3c3ncccc3c2[nH]1 here?
Answer: > 10000 nM

Question: What about the IC50 (second compound 0.1 µM) of the same molecule?
Answer: > 10000 nM

Question: And the IC50 (second compound 0.316 µM)?
Answer: > 10000 nM

Question: And the IC50 (second compound 1 µM)?
Answer: > 10000 nM

Question: And the IC50 (second compound 3.16 µM)?
Answer: 66.7 nM

Question: And the IC50 (second compound 10 µM)?
Answer: 845 nM

Question: What about the viability, T/C [1] of the same molecule?
Answer: 99.5%

Question: And the viability, T/C [2]?
Answer: 100%

Question: What about the viability, T/C [3] of the same molecule?
Answer: 96.5%

Question: And the viability, T/C [4]?
Answer: 112%

Question: And the viability, T/C [5]?
Answer: 94.4%

Question: What about the viability, T/C [6] of the same molecule?
Answer: 92.1%

Question: What about the viability, T/C [7] of the same molecule?
Answer: 103%

Question: What about the viability, T/C [8] of the same molecule?
Answer: 110%

Question: What about the viability, T/C [9] of the same molecule?
Answer: 97.3%

Question: And the viability, T/C [10]?
Answer: 113%

Question: What about the viability, T/C [11] of the same molecule?
Answer: 84.7%

Question: What about the viability, T/C [12] of the same molecule?
Answer: 87.6%

Question: And the viability, T/C [13]?
Answer: 98.5%

Question: And the viability, T/C [14]?
Answer: 102%

Question: And the viability, T/C [15]?
Answer: 105%

Question: And the viability, T/C [16]?
Answer: 100%

Question: And the viability, T/C [17]?
Answer: 77.6%

Question: And the viability, T/C [18]?
Answer: 86.1%

Question: What about the viability, T/C [19] of the same molecule?
Answer: 106%

Question: And the viability, T/C [20]?
Answer: 104%

Question: What about the viability, T/C [21] of the same molecule?
Answer: 101%

Question: What about the viability, T/C [22] of the same molecule?
Answer: 93.6%

Question: And the viability, T/C [23]?
Answer: 47.4%

Question: What about the viability, T/C [24] of the same molecule?
Answer: 73.7%

Question: What about the viability, T/C [25] of the same molecule?
Answer: 49.7%

Question: And the viability, T/C [26]?
Answer: 52.3%

Question: What about the viability, T/C [27] of the same molecule?
Answer: 39%

Question: And the viability, T/C [28]?
Answer: 30.2%

Question: What about the viability, T/C [29] of the same molecule?
Answer: 10.4%

Question: What about the viability, T/C [30] of the same molecule?
Answer: 20.4%

Question: And the viability, T/C [31]?
Answer: 76.7%

Question: What about the viability, T/C [32] of the same molecule?
Answer: 82.9%

Question: And the viability, T/C [33]?
Answer: 72.3%

Question: And the viability, T/C [34]?
Answer: 46.9%

Question: And the viability, T/C [35]?
Answer: 16.2%

Question: And the viability, T/C [36]?
Answer: 42.3%

Question: What does the source list for COc1ncnc(C2CC2)c1-c1ncc2cnn(Cc3ccc(-c4nc(C(F)(F)F)cn4C(C)C)cc3)c2n1 + Cc1[nH]c2ccc(F)cc2c1-c1nc2c3cccnc3c3ncccc3c2[nH]1?
Answer: IC50 (second compound 0.0316 µM): > 10000 nM; IC50 (second compound 0.1 µM): > 10000 nM; IC50 (second compound 0.316 µM): > 10000 nM; IC50 (second compound 1 µM): > 10000 nM; IC50 (second compound 3.16 µM): 3730 nM; IC50 (second compound 10 µM): 6580 nM; viability, T/C [1]: 102%; viability, T/C [2]: 107%; viability, T/C [3]: 109%; viability, T/C [4]: 108%; viability, T/C [5]: 107%; viability, T/C [6]: 106%; viability, T/C [7]: 119%; viability, T/C [8]: 106%; viability, T/C [9]: 93.8%; viability, T/C [10]: 112%; viability, T/C [11]: 107%; viability, T/C [12]: 123%; viability, T/C [13]: 104%; viability, T/C [14]: 104%; viability, T/C [15]: 108%; viability, T/C [16]: 106%; viability, T/C [17]: 112%; viability, T/C [18]: 108%; viability, T/C [19]: 104%; viability, T/C [20]: 106%; viability, T/C [21]: 99.9%; viability, T/C [22]: 106%; viability, T/C [23]: 100%; viability, T/C [24]: 104%; viability, T/C [25]: 72.2%; viability, T/C [26]: 72.5%; viability, T/C [27]: 77%; viability, T/C [28]: 61%; viability, T/C [29]: 54.1%; viability, T/C [30]: 34.3%; viability, T/C [31]: 88.9%; viability, T/C [32]: 92.9%; viability, T/C [33]: 87.2%; viability, T/C [34]: 79.7%; viability, T/C [35]: 61.3%; viability, T/C [36]: 43.5%
